Experimental data from paper PMC5458078, “Global mapping of CARM1 substrates defines enzyme specificity and substrate recognition” (Nature Communications, 2017).

Experiments:
MCF7 cells = test: Quantitative nanoLC-MS/MS (TMT) of ADMA-containing peptides, CARM1 KO vs parental; format: cell-based, human; set-up: Fold change KO/WT: scale not given here
MCF7 CARM1 KO cells = test: Quantitative MS of ADMA-containing peptides in MCF7 CARM1 KO cells expressing CARM1 28-608 or CARM1 140-608, and in CARM1 KO; format: cell-based, human
[1] = MCF7 CARM1 knockout vs wild type, 3 biological replicates each, values are on log2 scale
[2] = mean, CARM1 140-608 versus WT (log2 scale)
[3] = mean, CARM1 KO versus WT (log2 scale)
[4] = MCF7, CARM1 KO (KO1-KO3) vs wild type (WT1-WT3)
[5] = CARM1 140-608 versus WT, mean of three replicates (log2)
[6] = KO versus WT, mean of three replicates (log2)
[7] = MCF7, CARM1 knockout vs wild type, n = 3 each
[8] = ratio on log2 scale, mean of 3 replicates
[9] = ADMA-containing peptide, CARM1 knockout (KO) vs wild type (WT) MCF7 cells, 6-plex TMT experiment #1, three biological replicates each, sheet "MCF7"
[10] = ADMA-containing peptide, MCF7, CARM1 knockout (KO1-3) vs wild type (WT1-3), TMT 6-plex experiment #1
[11] = log2 scale ratio, mean of n = 3
[12] = difference of log2 means, CARM1 140-608 vs WT
[13] = difference of log2 means, KO vs WT
[14] = MCF7, CARM1 KO vs WT, three biological replicates each
[15] = CARM1 140-608 vs WT, mean of 3 replicates, log2
[16] = KO vs WT, mean of 3 replicates, log2

APVFPGrGSYSNr
Fold change KO/WT (MCF7 cells; [1]): 0.2723 | CARM1 140-608/WT (MCF7 CARM1 KO cells; [2]): 0.2637 | KO/WT (MCF7 CARM1 KO cells; [3]): 0.3482

APVFPGrGSYSNrGNYNR
Fold change KO/WT (MCF7 cells; [1]): 0.06661 | CARM1 140-608/WT (MCF7 CARM1 KO cells; [2]): 0.3143 | KO/WT (MCF7 CARM1 KO cells; [3]): -0.1859

APrFPSNIIVTNGAAR
Fold change KO/WT (MCF7 cells; [4]): -1.771 | CARM1 140-608/WT (MCF7 CARM1 KO cells; [5]): -0.8621 | KO/WT (MCF7 CARM1 KO cells; [6]): -1.771

APrSLIPPIPVSPPILAPrLSSGALK
Fold change KO/WT (MCF7 cells; [4]): -1.927 | CARM1 140-608/WT (MCF7 CARM1 KO cells; CARM1 140-608 vs WT, mean of 3 replicates (log2 scale)): -0.773 | KO/WT (MCF7 CARM1 KO cells; KO vs WT, mean of 3 replicates (log2 scale)): -1.927

AQPFAQPPGPWPLSSPGPrLVFNR
Fold change KO/WT (MCF7 cells; [7]): -4.7261 | CARM1 140-608/WT (MCF7 CARM1 KO cells; [8]): -2.181 | KO/WT (MCF7 CARM1 KO cells; [8]): -4.994

ASAPAADPPrYTFAPSVSLNK
Fold change KO/WT (MCF7 cells; [9]): -4.884 | CARM1 140-608/WT (MCF7 CARM1 KO cells; [5]): -4.581 | KO/WT (MCF7 CARM1 KO cells; [6]): -6.091

ASrGrGGLGPSWASANSGSGGSrGK
Fold change KO/WT (MCF7 cells; [1]): 0.06985 | CARM1 140-608/WT (MCF7 CARM1 KO cells; [2]): 0.01356 | KO/WT (MCF7 CARM1 KO cells; [3]): 0.5944

ATSPrPrAFDGAGSSLGrAPSPrPGPGPLrQQGPPTPFDFLGR
Fold change KO/WT (MCF7 cells; [4]): -2.635 | CARM1 140-608/WT (MCF7 CARM1 KO cells; [5]): -2.092 | KO/WT (MCF7 CARM1 KO cells; [6]): -2.635

ATSVLPrYGPPCLFK
Fold change KO/WT (MCF7 cells; [10]): -3.4878 | CARM1 140-608/WT (MCF7 CARM1 KO cells; [11]): -1.277 | KO/WT (MCF7 CARM1 KO cells; [11]): -3.4878

AVCSTPLSSSLLGPPGTSALPrLSR
Fold change KO/WT (MCF7 cells; [9]): -3.255 | CARM1 140-608/WT (MCF7 CARM1 KO cells; [12]): -2.222 | KO/WT (MCF7 CARM1 KO cells; [13]): -3.255

AVDLTKPYQNQQLSIrVPLR
Fold change KO/WT (MCF7 cells; [14]): -2.685 | CARM1 140-608/WT (MCF7 CARM1 KO cells; [15]): -2.717 | KO/WT (MCF7 CARM1 KO cells; [16]): -4.115

AYGQQYWGQPGNrGGYRNFYDR
Fold change KO/WT (MCF7 cells; [1]): 0.6249 | CARM1 140-608/WT (MCF7 CARM1 KO cells; [2]): -0.3814 | KO/WT (MCF7 CARM1 KO cells; [3]): 1.342

AYGQQYWGQPGNrGGYrNFYDR
Fold change KO/WT (MCF7 cells; [1]): 0.1386 | CARM1 140-608/WT (MCF7 CARM1 KO cells; [2]): -0.223 | KO/WT (MCF7 CARM1 KO cells; [3]): 0.1923

CAGFLEPTWLAAPPrLARPPR
Fold change KO/WT (MCF7 cells; [7]): -1.902 | CARM1 140-608/WT (MCF7 CARM1 KO cells; [8]): -0.2739 | KO/WT (MCF7 CARM1 KO cells; [8]): -1.902

CAGFLEPTWLAAPPrLArPPrFYEAGEELTGPGAVAAAR
Fold change KO/WT (MCF7 cells; [7]): -3.713 | CARM1 140-608/WT (MCF7 CARM1 KO cells; [8]): -2.314 | KO/WT (MCF7 CARM1 KO cells; [8]): -3.713

CDPVPAANGAIrFHCDPTFWAK
Fold change KO/WT (MCF7 cells; CARM1 KO vs wild type MCF7 cells, 3 biological replicates each): -1.494 | CARM1 140-608/WT (MCF7 CARM1 KO cells; CARM1 140-608 versus WT, difference of mean log2 values): -1.543 | KO/WT (MCF7 CARM1 KO cells; CARM1 KO versus WT, difference of mean log2 values): -1.494

CPADNPGLVQAQPrVPLTPTR
Fold change KO/WT (MCF7 cells; [10]): -4.345 | CARM1 140-608/WT (MCF7 CARM1 KO cells; [11]): -3.3817 | KO/WT (MCF7 CARM1 KO cells; [11]): -4.345

CrQPAPPTSQPPrAQPFAQPPGPWPLSSPGPrLVFNR
Fold change KO/WT (MCF7 cells; [7]): -3.117 | CARM1 140-608/WT (MCF7 CARM1 KO cells; [8]): -1.684 | KO/WT (MCF7 CARM1 KO cells; [8]): -3.117

DCGTLPNrFVITPR
Fold change KO/WT (MCF7 cells; [9]): -0.2619 | CARM1 140-608/WT (MCF7 CARM1 KO cells; [5]): -0.5335 | KO/WT (MCF7 CARM1 KO cells; [6]): -0.73

DFAFYNPrLQGK
Fold change KO/WT (MCF7 cells; [14]): -2.168 | CARM1 140-608/WT (MCF7 CARM1 KO cells; [15]): -2.071 | KO/WT (MCF7 CARM1 KO cells; [16]): -2.382

DGLTPVPPLAPAPrPPSSGLPAVLNPrPTLTPGrLPTPTLGTArAPMPTPTLVrPLLK
Fold change KO/WT (MCF7 cells; [10]): -3.645 | CARM1 140-608/WT (MCF7 CARM1 KO cells; [11]): -0.2727 | KO/WT (MCF7 CARM1 KO cells; [11]): -4.325

DLPLHPrGFLPGHAPFrPLGSLGPrEYFIPGTrLPPPTHGPQEYPPPPAVR
Fold change KO/WT (MCF7 cells; [9]): -1.638 | CARM1 140-608/WT (MCF7 CARM1 KO cells; [12]): -0.2675 | KO/WT (MCF7 CARM1 KO cells; [13]): -2.443

DPFSQALSrCQLQQAAALNAQHK
Fold change KO/WT (MCF7 cells; [7]): -2.1 | CARM1 140-608/WT (MCF7 CARM1 KO cells; [8]): -1.585 | KO/WT (MCF7 CARM1 KO cells; [8]): -2.1

DQPGTSAVPNLASVGTrLPPPLPQNLLYTVSER
Fold change KO/WT (MCF7 cells; [4]): -4.596 | CARM1 140-608/WT (MCF7 CARM1 KO cells; [5]): -1.1192 | KO/WT (MCF7 CARM1 KO cells; [6]): -4.635

DQPGTSAVPNLASVGTrLPPPLPQNLLYTVSErQPMYSR
Fold change KO/WT (MCF7 cells; [4]): -3.343 | CARM1 140-608/WT (MCF7 CARM1 KO cells; [5]): -2.641 | KO/WT (MCF7 CARM1 KO cells; [6]): -3.343
